Data set [1] has as its system Human diploid fibroblasts (HCA cells). Briefly: inhibition of senescence, β-galactosidase staining. Format: cell-based. As to conditions: test compounds about 50 μM at each passage; for Senescent Cells (%) HCA25: passage 25; for Senescent Cells (%) HCA80: passage 80. The protocol:
Inhibition of senescence by several of the 6,9-disubstituted purine derivatives of this invention was determined; kinetin was also evaluated as a control. […] The medium used for the cell cultivation was removed, the cells were washed twice in PBS, and fixed in 2-3 ml of fixing solution comprised of a 2% formaldehyde and 0.2% glutaraldehyde in PBS. The cells were incubated at room temperature for 5 minutes, and then washed twice with PBS. The cells were subsequently incubated at 37° C. (without CO2) for 1 to 16 hours in 2-3 ml of the solution comprising potassium ferricyanide (5 mM), potassium ferrocyanide (5 mM), MgCl2 (2 mM), X-gal (5-bromo-4-chloro-3-indolyl-β-D-galactopyranoside) (1 mg/ml), in citric/phosphate buffer (pH 6.0). The test compounds (about 50 μM) were added to the medium at each passage. […] In this experiment, only senescent cells were stained blue due to the action of β-galactosidase on the substrate.

Another data set concerns breast carcinoma MCF-7. Put plainly: in vitro cytotoxic activity, Calcein AM microtiter assay. Format: cell-based. As to conditions: Homo sapiens, MCF7; 72 hours; highest concentration 166.7 μM. As for the experimental part: (§1) In vitro cytotoxic activity of several of the 6,9-disubstituted purine derivatives of this invention was determined using a microtiter assay with Calcein AM and a panel of cell lines of different histogenetic and species origin; kinetin was also examined as a control. Because only metabolically active cells cleave Calcein AM (tetraacetoxymethyl ester of calcein), the intracellular concentration of calcein corresponds to the number of vital cells in the culture.
(§2) The following cell lines were used: human osteosarcoma (HOS); breast carcinoma MCF-7; human myeloid leukemia K-562; and mouse fibroblasts NIH3T3. The cells were maintained in Nunc/Corning 80 cm^2 plastic tissue culture flasks and cultured in cell culture medium (DMEM with 5 g/l glucose, 2 mM glutamine, 100 U/ml penicillin, 100 μg/ml streptomycin, 10% fetal calf serum, and sodium bicarbonate).
(§3) The cell suspensions were prepared and diluted according to the particular cell type and the expected target cell density (2.500-30.000 cells per well based on cell growth characteristics) were added by pipette (80 μl) into 96/well microtiter plates. Inoculates were allowed a pre-incubation period of 24 hours at 37° C. and 5% CO2 for stabilization. Four-fold dilutions of the intended test concentration were added at time zero in 20 μl aliquots to the microtiter plate wells. The test compounds were generally evaluated at six 4-fold dilutions. The highest well concentration used in the present study was 166.7 μM. All samples were examined in triplicates. Incubations of cells with the tested compounds was for 72 hours at 37° C., in 5% CO2 atmosphere and 100% humidity. At the end of the incubation period, Calcein AM was added to a final concentration of 1 μg/ml incubated for 1 hour. Fluorescence intensity (FI) was measured with a Labsystem FIA Reader Fluoroscan Ascent (UK). The cell survival (GI50) was calculated using the following equation: GI50=([…])/(mean FIcontrol well−mean FIblank)×100%. The GI50 value, the drug concentration lethal to 50% of the cells, was calculated from the obtained dose response curves.

Another data set has as its system human osteosarcoma (HOS). Described as above. Format: cell-based. As to conditions: 72 hours, highest concentration 166.7 μM. As for the experimental part: as §1, §2, §3
A further data set relates to mouse fibroblasts NIH3T3. Described as above. The data set is classed as cell-based. As to conditions: NIH3T3, 72 hours, highest concentration 166.7 μM, read-out: GI50 NIH-3T3. As for the experimental part: as §1, §2, §3
The subject of data set [2] is Human forskin fibroblasts (cell line BJ). Briefly: in vitro cytotoxic activity, MTT assay. The data set is classed as cell-based. As to conditions: 72 hours, BJ fibroblasts at middle passage. The protocol:
In vitro cytotoxic activity of several of the 6,9-disubstituted purine derivatives of this invention against human diploid fibroblasts was determined by standard MTT assay optimized for 96-well plates. The assay is based on spectrofotometric measurement of the product of metabolic conversion of MTT by mitochondria of living cells.
Human forskin fibroblasts (cell line BJ) at middle passage were maintained in 75 cm^2 plastic tissue culture flasks and cultured in cell culture medium (DMEM with 5 g/l glucose, 2 mM glutamine, 100 U/ml penicillin, 100 μg/ml streptomycin, 10% fetal calf serum, and sodium bicarbonate).
About 5,000 cells were seeded per well of the 96-well plate. After 24 hours the cell culture medium was replaced with the cell culture medium containing a test compound. The test compounds were evaluated at six 2-fold dilutions. The highest concentration used in the present study was usually 200 μM. In the case of compounds with limited solubility in the culture medium the highest concentration was adjusted. Every test compound was examined in five replicates. Cells with the test compounds were incubated for 72 hours at 37° C. in 5% CO2 atmosphere and 100% humidity. At the end of the incubation period, the culture medium was replaced with the cell culture medium containing MTT (0.5 mg/ml) and cells were incubated for another 3 hours. The formazan formed was solubilized by DMSO and absorbance at 570 nm was measured. Ability of the tested compounds to inhibit MTT reducing activity of the cells was calculated as IC=(Acompound exposed well−mean Ablank)/(mean Acontrol well−meanAblank)×100%. IC10, the drug concentration causing 10% decrease in MTT reducing activity, was calculated from the obtained dose response curves.
(Formazan colour is commonly taken as a measure of viable cells.)

In data set [3] the test system is Rat C6 glioma (ATCC No. CCL107). Briefly: anti-inflammatory activity: isoproterenol-induced intracellular cAMP synthesis. As to conditions: cAMP after 30 min with (−)-isoproterenol; for pIC50: Rattus norvegicus, C6 glioma, 0.5 h, read-out: Anti-inflammatory Activity I50. Format: cell-based. As for the experimental part: Anti-inflammatory activity of several of the 6,9-disubstituted purine derivatives of this invention was determined; kinetin was also evaluated as a control. Rat C6 glioma (ATCC No. CCL107) was cultivated in monolayer in serum-free chemically defined medium containing Ham's F10/minimal essential medium (1:1 v/v), 2 mM L-glutamine, 1% (v/v) minimal essential medium vitamins (100×), 1% (v/v) minimal essential medium nonessential amino acids (100×), 100 U/ml penicillin, […], and 30 nM sodium selenite. Incubation was performed at 37° C. in a humidified atmosphere. The assays were performed in the logaritmic growth phase at a density of 2.5×10^5 cells/cm^2. Intracellular cAMP synthesis was induced by addition of 5 mM (−)-isoproterenol; various amounts of test compounds were added at the same time as the (−)-isoproterenol. After 30 min incubation at 37° C., the medium was removed and the cellular amount of cAMP was determined using the cAMP-enzyme immunoassay kit from Amersham. The I50 value was determined from a dose-response curve in duplicate.

pIC50: −log10 of the molar value.

In the case of `COc1ccccc1CNc1ncnc2c1ncn2C1CCCCO1` (stereo not shown) [6-(2-methoxybenzylamino)-9-(2-tetrahydropyranyl)purine], the melting point was 106 to 108 °C. Moreover, in data set [1], the “Senescent Cells (%) HCA50” value is reported as 6%, the “Senescent Cells (%) HCA25” value was 4% and the “Senescent Cells (%) HCA80” value came out at 22%.

Consider `COc1ccc(Nc2ncnc3c2ncn3C2CCCCO2)cc1OC` (stereo not shown) [6-(3,4-dimethoxyphenylamino)-9-(2-tetrahydropyranyl)purine], for which, in data set [1], the “Senescent Cells (%) HCA50” value turned out to be 7%, the “Senescent Cells (%) HCA25” value is listed as 5% and the “Senescent Cells (%) HCA80” value amounted to 28%.

Turning to `COc1ccc(Nc2ncnc3c2ncn3C2CCCCO2)c(OC)c1` (stereo not shown) [6-(2,4-dimethoxyphenylamino)-9-(2-tetrahydropyranyl)purine], in data set [1], the “Senescent Cells (%) HCA50” value was 4%, the “Senescent Cells (%) HCA25” value was determined as 4% and the “Senescent Cells (%) HCA80” value was determined as 29%.

For the molecule `COc1ccc(OC)c(CNc2ncnc3c2ncn3C2CCCCO2)c1` (stereo not shown) [Example 12, 6-(2,5-dimethoxybenzylamino)-9-(2-tetrahydropyranyl)purine], the melting point lay within 150 to 152 °C.

`COc1cccc(CNc2ncnc3c2ncn3C2CCCO2)c1` (stereo not shown) [6-(3-methoxybenzylamino)-9-(2-tetrahydrofuranyl)purine] gave a melting point of 87 to 88 °C. Besides, the GI50 in the data set on breast carcinoma MCF-7 was greater than 167 µM. The GI50 in the data set with human osteosarcoma (HOS) is greater than 167 µM. Moreover, the GI50 with mouse fibroblasts NIH3T3 is greater than 167 µM.

For `COc1cc(OC)c(OC)cc1CNc1ncnc2c1ncn2C1CCCCO1` (stereo not shown) [6-(2,4,5-trimethoxybenzylamino)-9-(2-tetrahydropyranyl)purine], the “IC10 (concentration causing 10% decrease in MTT reducing activity)” value in data set [2] was greater than 200 µM.

For `COc1cccc(CNc2ncnc3c2ncn3C2CCCCO2)c1OC` (stereo not shown) [6-(2,3-dimethoxybenzylamino)-9-(2-tetrahydropyranyl)purine], the GI50 with breast carcinoma MCF-7, in the data set on human osteosarcoma (HOS) and in the data set with mouse fibroblasts NIH3T3 was greater than 167 µM in each case.

On to `COc1ccc(CNc2ncnc3c2ncn3C2CCCO2)c(OC)c1OC` (stereo not shown) [Example 15, 6-(2,3,4-trimethoxybenzylamino)-9-(2-tetrahydrofuranyl)purine], for which the melting point lay in the range of 140 to 141 °C.

As to `COc1ccc(OC)c(CNc2ncnc3c2ncn3C2CCCO2)c1` (stereo not shown) [Example 13, 6-(2,5-dimethoxybenzylamino)-9-(2-tetrahydrofuranyl)purine], the melting point was in the range of 103 to 104 °C.

Consider `COc1cc(CNc2ncnc3c2ncn3C2CCCCO2)cc(OC)c1OC` (stereo not shown) [6-(3,4,5-trimethoxybenzylamino)-9-(2-tetrahydropyranyl)purine], for which the “IC10 (concentration causing 10% decrease in MTT reducing activity)” value in data set [2] (highest tested concentration 100 µmol/l) is greater than 100 µM; in data set [2] (highest tested concentration 200 µmol/l), greater than 200 µM.

In the case of `COc1ccc(CNc2ncnc3c2ncn3C2CCCCO2)c(OC)c1OC` (stereo not shown) [6-(2,3,4-trimethoxybenzylamino)-9-(2-tetrahydropyranyl)purine], the melting point was 142 to 143 °C. In addition, in data set [1], the “Senescent Cells (%) HCA50” value was found to be 5%, the “Senescent Cells (%) HCA25” value was found to be 4% and the “Senescent Cells (%) HCA80” value was 31%.

On to `COc1cc(OC)c(CNc2ncnc3c2ncn3C2CCCCO2)c(OC)c1` (stereo not shown) [6-(2,4,6-trimethoxybenzylamino)-9-(2-tetrahydropyranyl)purine], for which the “IC10 (concentration causing 10% decrease in MTT reducing activity)” value in data set [2] was greater than 50 µM.

As for `COc1cc(OC)c(OC)cc1Nc1ncnc2c1ncn2C1CCCCO1` (stereo not shown) [6-(2,4,5-trimethoxyphenylamino)-9-(2-tetrahydropyranyl)purine], in data set [1], the “Senescent Cells (%) HCA50” value stood at 4%, the “Senescent Cells (%) HCA25” value worked out at 5% and the “Senescent Cells (%) HCA80” value is on record as 25%.

On to `COc1ccccc1CNc1ncnc2c1ncn2C1CCCO1` (stereo not shown) [Example 8, 6-(2-methoxybenzylamino)-9-(2-tetrahydrofuranyl)purine], for which the melting point fell in the range of 97 to 99 °C.

`COc1ccc(Nc2ncnc3c2ncn3C2CCCCO2)cc1` (stereo not shown) [Example 10, 6-(4-methoxyphenylamino)-9-(2-tetrahydropyranyl)purine] came in with a melting point of 150 to 151 °C.

Turning to `COc1ccc(CNc2ncnc3c2ncn3C2CCCCO2)c(OC)c1` (stereo not shown) [6-(2,4-dimethoxybenzylamino)-9-(2-tetrahydropyranyl)purine], the “IC10 (concentration causing 10% decrease in MTT reducing activity)” value in data set [2] is greater than 25 µM. In data set [1], the “Senescent Cells (%) HCA50” value was found to be 6%, the “Senescent Cells (%) HCA25” value worked out at 4% and the “Senescent Cells (%) HCA80” value turned out to be 25%.

Regarding `COc1cccc(CNc2ncnc3c2ncn3C2CCCCO2)c1` (stereo not shown) [6-(3-methoxybenzylamino)-9-(2-tetrahydropyranyl)purine], the melting point lay in the range of 134 to 135 °C. In addition, the “IC10 (concentration causing 10% decrease in MTT reducing activity)” value in data set [2] is greater than 100 µM. Moreover, in data set [1], the “Senescent Cells (%) HCA50” value came out at 5%, the “Senescent Cells (%) HCA25” value came out at 5% and the “Senescent Cells (%) HCA80” value amounted to 24%. In data set [3], the pIC50 was 5.15 and the “Anti-inflammatory Activity Effect” value is “Inhibition”.

As to `c1ccc(Nc2ncnc3c2ncn3C2CCCCO2)cc1` (stereo not shown) [6-phenylamino-9-(2-tetrahydropyranyl)purine], in data set [3], the pIC50 is 4.35 and the “Anti-inflammatory Activity Effect” value was “Inhibition”.

Take `COc1ccc(CNc2ncnc3c2ncn3C2CCCCO2)cc1OC` (stereo not shown) [6-(3,4-dimethoxybenzylamino)-9-(2-tetrahydropyranyl)purine]: the “IC10 (concentration causing 10% decrease in MTT reducing activity)” value in data set [2] is greater than 200 µM.

Molecule `c1coc(CNc2ncnc3c2ncn3C2CCCO2)c1` (stereo not shown) [6-furfurylamino-9-(2-tetrahydrofuranyl)purine] had a melting point of 128 to 129 °C. The “IC10 (concentration causing 10% decrease in MTT reducing activity)” value in data set [2] was greater than 200 µM. In data set [1], the “Senescent Cells (%) HCA50” value is on record as 4%, the “Senescent Cells (%) HCA25” value is given as 3% and the “Senescent Cells (%) HCA80” value was determined as 12%.

What is called melting point is the temperature of the solid-liquid transition. As a reminder, the GI50 is the concentration giving 50% growth inhibition.

The record behind these values is patent publication US20130072505A1, “6,9-Disubstituted Purine Derivatives and Their Use for Treating Skin” (priority 2006, published 2013).
